These compounds were tested against T1, Acetyl-CoA acetyltransferase, mitochondrial (Homo sapiens, UniProt P24752) (assay: Experimental Method Screening Method of ACAT1 Small Molecule Inhibitors).
T1 sequence (P24752 whole entry): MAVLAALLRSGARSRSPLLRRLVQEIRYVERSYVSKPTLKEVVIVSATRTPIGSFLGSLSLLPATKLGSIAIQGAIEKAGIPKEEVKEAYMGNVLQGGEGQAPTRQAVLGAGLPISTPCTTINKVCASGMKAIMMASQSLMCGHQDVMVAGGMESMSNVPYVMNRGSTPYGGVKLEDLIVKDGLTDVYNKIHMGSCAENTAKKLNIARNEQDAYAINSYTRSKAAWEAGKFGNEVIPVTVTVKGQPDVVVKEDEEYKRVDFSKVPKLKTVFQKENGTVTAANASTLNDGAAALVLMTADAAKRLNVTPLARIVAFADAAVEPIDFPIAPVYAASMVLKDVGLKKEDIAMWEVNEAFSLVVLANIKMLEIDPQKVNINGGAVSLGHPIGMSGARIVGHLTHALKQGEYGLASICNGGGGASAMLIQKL
Method: ACAT1 can catalyze two molecules of acetyl coenzyme A to reversibly form acetoacetyl coenzyme A. Its activity was measured through the reaction between ACAT1-catalyzed substrate acetoacetyl-coenzyme A and coenzyme A, from which the product acetyl-coenzyme A is produced. Since acetoacetyl-coenzyme A is specifically absorbed in a specific spectrum, the impact on the enzyme activity of ACAT1 can be reflected through the detection of an increase or decrease of absorption in a specific spectrum.ACAT1 recombinant proteins were expressed and purified by Escherichia coli, and the concentration of ACAT1 recombinant proteins obtained was 1 mg/mL. The buffers adopted for ACAT1 small molecule inhibitor screening were 50 mM Tris-HCl (pH 8.1), 20 mM MgCl2, and 40 mM KCl. In 200 μL of enzyme catalytic system, 1 μL of ACAT1 recombinant proteins, the substrate […] whose final concentration was changed from 25 μM to 100 μM through a CPM probe, and small molecule inhibitors at different concentrations were added, respectively.
`COc1ccc([C@@H](O)[C@@H](C)Oc2ccc(OC(=O)/C=C/c3ccc(O)c(O)c3)cc2OC)cc1OC` [US20250248955, Compound M3] showed an IC50 greater than 100 µM. `O=C(/C=C/c1ccc(O)c(O)c1)Nc1ccc(OCCc2ccc(O)cc2)cc1` [US20250248955, Compound M8] was tested, and the IC50 was 114 µM. Work on `O=C(/C=C/c1ccc(O)c(O)c1)Nc1ccc(OCCc2ccc(F)cc2)cc1` [US20250248955, Compound M6] yielded an IC50 of 134 µM. Compound `COc1ccc([C@H](O)[C@@H](C)Oc2ccc(OC(=O)/C=C/c3ccc(O)c(O)c3)cc2OC)cc1OC` [US20250248955, Compound M2] has an IC50 greater than 100 µM. Compound `COCOc1ccc(/C=C/C(=O)Nc2ccc(OCCc3ccc(OC)c(OC)c3)cc2)cc1OCOC` [US20250248955, Compound M16] has an IC50 of 172 µM. Work on `COCOc1ccc(/C=C/C(=O)Nc2ccc(OCCc3ccccc3)cc2)cc1OCOC` [US20250248955, Compound M11] yielded an IC50 of 136 µM. For `COCOc1ccc(/C=C/C(=O)Nc2ccc(OCCc3ccc(C)cc3)cc2)cc1OCOC` [US20250248955, Compound M14], the IC50 was 111 µM. `COCOc1ccc(/C=C/C(=O)Nc2ccc(OCCc3ccc(O)cc3)cc2)cc1OCOC` [US20250248955, Compound M15] gave an IC50 of 312 µM. `COCOc1ccc(/C=C/C(=O)Nc2ccc(OCCc3ccc(F)cc3)cc2)cc1OCOC` [US20250248955, Compound M13] was tested, and the IC50 was 152 µM. `O=C(/C=C/c1ccc(O)c(O)c1)Nc1ccc(OCCc2ccccc2)cc1` [US20250248955, Compound M4] showed an IC50 of 112 µM.

From BindingDB's records for patent US20250248955 (Longivitron (Suzhou) Biotechnology Co., 2025)
